PMC9669214 (Biochemistry, 2022)

Molecular target: GacI-PP (Streptomyces glaucescens, UniProt B0B0T9)
Assay: LC-Q-TOF-MS of product V1P
Assay type: biochemical
Settings: V1,7PP 1 mM, Tris-HCl 20 mM pH 7.5, 30 °C

`O=P(O)(O)OCC1=CC(OP(=O)(O)O)C(O)C(O)C1O` (stereo not shown) [compound 8, V1,7PP] was tested, and the “LC-Q-TOF-MS of product V1P; MESG/PNP initial velocity” value was “The protein was then incubated with V1,7PP and the formation of V1P was confirmed”.
